Results taken from US9623065B2, “Kind of polygonum capitatum extract, its application and a preparation containing the polygonum capitatum extract” (Zhejiang Sanzheng Biotechnology Co., Ltd., priority 2013, dated 2017).

Columns and labels:
[1] = test system: 3T3-L1 adipocyte IR model; assay: Influence of glucose utilization on the 3T3-L1 adipocyte insulin resistance (IR) model; assay type: cell-based, mouse
Procedure: 3T3-L1 mouse embryonic fibroblast cells, are derived from the Institute of Life Science of Chinese Academy of Sciences. Plant the 3T3-L1 preadipocytes into the 25 cm2 cell culture plate, add 6 ml normal culture medium, keep it at culture conditions of 37° C. and 5% CO2, change liquid in the next day. Pass or store it in freezing conditions after the 80% cell fused.
Inoculate the 3T3-L1 preadipocytes at the density of 5×10^3 in a 24-hole culture plate, wait until the cells grow to contact inhibition, replace the cell culture medium with differentiation liquid A (0.5 mmol/L IBMX, 0.1 umol/L DEX, 10 mg/L INS) and culture them for 48 h, then replace with the induction differentiation liquid (10 mg/L) to continuously culture for 48 h B, change the normal culture medium to continue culturing, and change the liquid once every 2 days, 90% of the above induced differentiation cells will have a mature phenotype after 6-8 days.
After counting the 3T3-L1 cells in logarithmic growth phase, inoculate them at the density of 5*10^3 each hole onto 24-hole culture plate, then put the culture plate into the CO2 incubator, under the conditions of a temperature of 37° C., 5% CO2 and saturated humidity, culture them to growth inhibition, induction differentiation to mature adipocytes. Add the following processing factors: • The control group shall be continued with their normal culture medium (DMEM high glucose culture liquid containing 10% FBS) • The model group shall be given 1 umol DEX normal culture medium; • Other cells shall be used in each drug group experiment
After counting the 3T3-L1 cell in logarithmic growth phase, inoculate each hole with density of 5×10^3 cells in 24-hole culture plate. According to the IR models preparation method of 2.3, divide the mature 3T3-L1 adipocytes into a normal culture group and model group, the model group can also be divided into a model control group and each drug group. The model group shall be given 1 umol DEX to react for 48 h. After the models are built, administer the drug as per the experimental groups and the concentration of drug, in 3 parallel plates. In 24 h, 48 h the cell morphologies shall be observed and take the supernatant to be tested on the semi automatic biochemical instrument, determine the glucose (GLU) content in the culture solution according to the descriptions of the kit.

[2] = test system: alloxan hyperglycemia model mice; assay: Blood glucose of alloxan hyperglycemia model mice, comparison of extraction methods (Test Case 4); assay type: in vivo, KM mice; settings: dose 0.5 mg, fasting
Procedure: Take 460 KM mice, with a weight of (20±2) g, half male and half female, let them to adapt to the environment for 7 days. Randomly select 6 male mice and 6 female mice as the blank control group, keep them fasted but water is supplied to them for 18 hours, use the physiological saline to prepare the 1.1% alloxan, and store it in an ice water bath. Carry out the intraperitoneal injection according to the ratio of 110 mg/kg, the control group is injected with the isodose physiological saline, let them eat after 1 h recovery. Use the same modeling method in the second day. 3 days later (72 h, normal diet), then fasting 12 hours, and then cut their tails to take a few drops of blood, and then fasting blood glucose is measured with glucose oxidase method, the mice with the blood glucose value greater than 11.1 mmol/L are the mice that successfully modeled.
Among the 460 KM mice, 12 of them belong to the blank control group, the remaining mice are used to modeling. After the modeling the mice with the blood glucose values measured greater than 11.1 mmol/L. In the design process each experimental group has 12 mice.
Take the model mice, randomly divide then into 16 groups, namely the water extraction (high, medium and low) dose group, the alcohol extraction (high, medium and low) dose group, the water and alcohol extraction (high, medium and low) dose group, the modeling group, positive group and blank control group (normal mice), please refer to Table 1.
Use surgical scissors to cut 2-3 mm of a mouse tail, press the tail to take a few drops of blood and place in the EP tube, first add 12 μL 15 g/L bipotassium EDTA solution, high speed centrifuge it (10000 r/min) for 5 min. Wait till the blood is stratified, take the upper layer serum 10 μL, plus 30 μL physiological saline, shake it evenly; and take 10 μL the dilute serum and put into a EP tube, add 1 mL glucose (Glu) oxidase, shake it evenly, keep at 37° C. for 15 min, the sample (U) is to be measured. Then take the physiological saline and calibrator (c) 10 μL respectively, add 1 mL glucose oxidase, shake evenly, keep at 37° C. for 15 min, determine the absorbance (A) with 505 nm wavelength after adjusting the blank tube to zero. […]
(§1) This experiment adopts the GOD-POD method for determination of serum glucose concentration, the principle of this method is POD in serum glucose is oxidized into D-gluconic acid in the presence of GOD, and generate H2O2; the latter and 4-amino antipyrine and phenol form red benzophenone imine under the effect of peroxidase (POD) benzophenone imine, the depth of the color of the ketone compounds is directly proportional to the content of glucose. Determine the absorbance values of the standard tube and the sample tube respectively, and then calculate the content of glucose.

[3] = test system: alloxan hyperglycemia model mice; assay: Efficacy test of tablet, oral liquid, capsule, granules in alloxan hyperglycemia model mice (Test Cases 5-8); assay type: in vivo, KM mice; settings: dose 0.5 mg
Procedure: Take 80 KM mice, with a body weight of (20+2) g, half male and half female, and let them to adapt to the environment for 7 days. Randomly select 6 male mice and female mice as the blank control group, fasted and supplied with water for 18 h. Prepare 1.1% alloxan with physiological saline, and keep it in ice water bath. Carry out intraperitoneal injection according to a dose of 110 mg/kg, the mice of the control group are to be injected with physiological saline, and then fast them 12 hours, use the same modeling method in the second day. 3 days later (72 h, restore to normal diet), then fast 12 h, and then cut the tail to take a few drops of blood. The fasting blood glucose was measured with glucose oxidase method. The mice that have a blood glucose value greater than 11.1 mmol/L are mice that have been successfully modeled.
Among the 80 KM mice, 12 are as the blank control group, the remaining mice are used to modeling. After modeling, find the mice with the blood glucose values measured more than 11.1 mmol/L. In the experiment design process each group is set with 12 mice, the number of female mice are larger in the experimental results, so the number of female mice designed a dose is 6-8 only (8 with only statistical significance), the tails of some of the male model mice may be damaged, which is not conducive to the blood sampling in the next step, therefore it is not designed in this experimental group.
Use surgical scissors to cut 2-3 mm of a mouse tail, press the tail to take a few drops of blood and place in the EP tube, first add 12 μL 15 g/L bi-potassium EDTA solution, high speed centrifuge it (10000 r/min) for 5 min. Wait till the blood is stratified, take the upper layer serum 10 μL, plus 30 μL physiological saline, shake it evenly; and take 10 μL the dilute serum and put into a EP tube, add 1 mL glucose (Glu) oxidase, shake evenly, keep at 37° C. for 15 min, the sample (U) is to be measured. Then take the physiological saline and calibrator (c) 10 μL respectively, add 1 mL glucose oxidase, shake it evenly, keep at 37° C. for 15 min, determine the absorbance (A) with 505 nm wavelength after adjusting the blank tube to zero. Sample Glu (mmol/L)=Au/Ac*Cc
Determine the fasting blood glucose values corresponding to the administration of 7 d, 14 d, 21 d and 28 d after the success of modeling (fasted but water is supplied for 12 h).
as §1

How did the “Average 24 h GLU content” value ([1]; 3.125 ug/ml, first series) turn out when `CN(CCOc1ccc(CC2SC(=O)NC2=O)cc1)c1ccccn1` (stereo not shown) [ROG] was run?
Its value is 22.24 mmol/L.

What about the “Average 48 h GLU content” value ([1]; 3.125 ug/ml, first series) of the same molecule?
Its value is 20.46 mmol/L.

What about the “Average 24 h GLU content” value ([1]; 12.5 ug/ml, first series) of the same molecule?
The value was 22.04 mmol/L.

And the “Average 48 h GLU content” value ([1]; 12.5 ug/ml, first series)?
Its value is 21.67 mmol/L.

What about the “Average 24 h GLU content” value ([1]; 50 ug/ml, culture supernatant, first series (model control 23.08)) of the same molecule?
The value was 21.84 mmol/L.

And the “Average 48 h GLU content” value ([1]; 50 ug/ml, culture supernatant, first series (model control 22.18))?
The value was 20.53 mmol/L.

And the “Average 24 h GLU content” value ([1]; 100 ug/ml, second series (model control 27.72))?
Its value is 25.38 mmol/L.

And the “Average 48 h GLU content” value ([1]; 100 ug/ml, second series (model control 26.27))?
The value was 24.64 mmol/L.

Which “Blood glucose level 7 d” value ([2]; 7 d) does the source give for `C[C@H]1O[C@H](O[C@H]2[C@H](O)[C@@H](O)[C@@H](O[C@H]3[C@H](O)[C@@H](O)C(O)O[C@@H]3CO)O[C@@H]2CO)[C@H](O)[C@@H](O)[C@@H]1N[C@H]1C=C(CO)[C@@H](O)[C@H](O)[C@H]1O` (stereo partly shown) [Acarbose] here?
Its value is 19.23 ± 7.54 mmol/L.

And the “Blood glucose level 14 d” value ([2]; 14 d)?
Its value is 18.00 ± 6.99 mmol/L.

And the “Blood glucose level 21 d” value ([2]; 21 d)?
The value was 19.99 ± 6.69 mmol/L.

What about the “Blood glucose level 28 d” value ([2]; 28 d) of the same molecule?
Its value is 22.81 ± 7.72 mmol/L.

What about the “Blood glucose level 7 d” value ([3]; Table 8) of the same molecule?
Its value is 19.23 ± 7.54 mmol/L.

And the “Blood glucose level 14 d” value ([3]; Table 8)?
Its value is 18.00 ± 6.99 mmol/L.

What about the “Blood glucose level 21 d” value ([3]; Table 8) of the same molecule?
Its value is 19.99 ± 6.69 mmol/L.

And the “Blood glucose level 28 d” value ([3]; Table 8)?
The value was 22.81 ± 7.72 mmol/L.

What about the “Blood glucose level 7 d” value ([3]; Table 9) of the same molecule?
Its value is 19.23 ± 7.54 mmol/L.

And the “Blood glucose level 14 d” value ([3]; Table 9)?
The value was 18.00 ± 6.99 mmol/L.

And the “Blood glucose level 21 d” value ([3]; Table 9)?
The value was 19.99 ± 6.69 mmol/L.

And the “Blood glucose level 28 d” value ([3]; Table 9)?
The value was 22.81 ± 7.72 mmol/L.

And the “Blood glucose level 7 d” value ([3]; Table 10, in mmol/L)?
The value was 19.23 ± 7.54.

And the “Blood glucose level 14 d” value ([3]; Table 10, in mmol/L)?
The value was 18.00 ± 6.99.

And the “Blood glucose level 21 d” value ([3]; Table 10, in mmol/L)?
The value was 19.99 ± 6.69.

What about the “Blood glucose level 28 d” value ([3]; Table 10, in mmol/L) of the same molecule?
Its value is 22.81 ± 7.72.

And the “Blood glucose level 7 d” value ([3]; Table 11, in mmol/L)?
Its value is 19.23 ± 7.54.

And the “Blood glucose level 14 d” value ([3]; Table 11, in mmol/L)?
The value was 18.00 ± 6.99.

And the “Blood glucose level 21 d” value ([3]; Table 11, in mmol/L)?
The value was 19.99 ± 6.69.

What about the “Blood glucose level 28 d” value ([3]; Table 11, in mmol/L) of the same molecule?
Its value is 22.81 ± 7.72.
